Test results from patent US20230295130A1, “COMPOUND USEFUL AS CDK7 KINASE INHIBITOR AND USE THEREOF” (TYK MEDICINES, INC., priority 2020, published 2023).

Tests used:
Assay in all cases: Enzyme activity test, mobility shift assay (Table 1)
Type in all cases: biochemical
[1] = molecular target: CDK7/Cyclin H/MAT1 kinase (Homo sapiens (Human), UniProt P50613); settings: 2 mM ATP; pre-incubated 0 and 60 minutes
Method: IC50 values of the compounds for CDK7 kinase were detected in Wuxi Biortus Biosciences Co. Ltd.
(§1) The compound powder was dissolved in 100% DMSO to prepare a 10 mM storage solution. The storage solution was further diluted to 0.5 mM as the initial concentration, and continuously diluted 3 times to obtain 10 compound solutions with different concentrations. The compound and enzyme were pre-incubated for 0 minutes and 60 minutes, respectively, using duplicate detection.
(§2) was used as a positive control, and Mobility shift assay method was used to detect CDK kinase (such as CDK7, CDK9, CDK12 and CDK2) activity of the compounds.

[2] = molecular target: CDK2/Cyclin El (Homo sapiens (Human), UniProt P24941); settings: 2 mM ATP; read-out: CDK2 kinase IC50
Method: as §1, §2

[3] = molecular target: CDK9/Cyclin Tl (Homo sapiens (Human), UniProt P50750); settings: 2 mM ATP; read-out: CDK9 kinase IC50
Sequence of CDK9/Cyclin Tl (P50750 whole entry): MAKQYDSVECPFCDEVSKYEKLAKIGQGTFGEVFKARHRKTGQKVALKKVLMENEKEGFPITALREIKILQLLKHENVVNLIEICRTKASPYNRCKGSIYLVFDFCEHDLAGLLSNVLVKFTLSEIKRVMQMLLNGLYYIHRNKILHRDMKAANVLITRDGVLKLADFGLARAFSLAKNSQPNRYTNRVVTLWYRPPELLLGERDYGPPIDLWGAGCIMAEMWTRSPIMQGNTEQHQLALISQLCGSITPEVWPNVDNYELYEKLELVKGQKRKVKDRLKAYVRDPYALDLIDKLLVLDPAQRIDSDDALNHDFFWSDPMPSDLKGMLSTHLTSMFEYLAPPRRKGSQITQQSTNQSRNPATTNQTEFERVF
Sequence of CDK9/Cyclin Tl (O60563 whole entry partner): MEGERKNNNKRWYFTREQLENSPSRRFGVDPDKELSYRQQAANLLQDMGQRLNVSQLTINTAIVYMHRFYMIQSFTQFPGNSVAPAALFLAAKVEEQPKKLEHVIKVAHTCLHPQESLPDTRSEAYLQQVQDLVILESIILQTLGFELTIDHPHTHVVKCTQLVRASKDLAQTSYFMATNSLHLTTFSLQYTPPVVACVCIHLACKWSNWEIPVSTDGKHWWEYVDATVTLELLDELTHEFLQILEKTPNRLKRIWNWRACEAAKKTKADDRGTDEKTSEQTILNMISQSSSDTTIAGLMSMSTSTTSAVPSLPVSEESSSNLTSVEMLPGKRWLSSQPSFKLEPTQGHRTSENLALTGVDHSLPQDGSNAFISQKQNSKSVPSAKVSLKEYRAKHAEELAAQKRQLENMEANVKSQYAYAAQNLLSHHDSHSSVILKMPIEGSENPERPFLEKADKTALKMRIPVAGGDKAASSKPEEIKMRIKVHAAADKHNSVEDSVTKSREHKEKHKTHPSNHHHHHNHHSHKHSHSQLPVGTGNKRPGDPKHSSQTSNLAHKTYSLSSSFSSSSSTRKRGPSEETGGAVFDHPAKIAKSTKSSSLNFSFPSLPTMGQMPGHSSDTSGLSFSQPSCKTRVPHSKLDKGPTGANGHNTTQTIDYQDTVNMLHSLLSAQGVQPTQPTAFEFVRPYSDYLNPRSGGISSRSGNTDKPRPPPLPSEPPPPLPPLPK
Method: as §1, §2

[4] = molecular target: CDK12 (aa686-1082)/Cyclin K (Homo sapiens (Human), UniProt Q9NYV4); settings: 2 mM ATP; read-out: CDK12 kinase IC50
Sequence of CDK12 (aa686-1082)/Cyclin K (Q9NYV4 686-1082): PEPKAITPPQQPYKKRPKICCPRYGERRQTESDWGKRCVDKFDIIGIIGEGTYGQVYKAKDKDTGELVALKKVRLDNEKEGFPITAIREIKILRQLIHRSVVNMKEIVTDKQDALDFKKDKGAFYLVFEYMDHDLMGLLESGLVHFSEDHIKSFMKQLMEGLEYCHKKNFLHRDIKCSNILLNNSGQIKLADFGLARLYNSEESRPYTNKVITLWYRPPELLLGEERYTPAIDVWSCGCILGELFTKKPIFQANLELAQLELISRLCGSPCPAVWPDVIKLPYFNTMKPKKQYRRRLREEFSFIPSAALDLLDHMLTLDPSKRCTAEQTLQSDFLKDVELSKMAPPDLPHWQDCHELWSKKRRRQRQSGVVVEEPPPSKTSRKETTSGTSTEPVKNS
Sequence of CDK12 (aa686-1082)/Cyclin K (O75909 whole entry partner, the tested form may be a part): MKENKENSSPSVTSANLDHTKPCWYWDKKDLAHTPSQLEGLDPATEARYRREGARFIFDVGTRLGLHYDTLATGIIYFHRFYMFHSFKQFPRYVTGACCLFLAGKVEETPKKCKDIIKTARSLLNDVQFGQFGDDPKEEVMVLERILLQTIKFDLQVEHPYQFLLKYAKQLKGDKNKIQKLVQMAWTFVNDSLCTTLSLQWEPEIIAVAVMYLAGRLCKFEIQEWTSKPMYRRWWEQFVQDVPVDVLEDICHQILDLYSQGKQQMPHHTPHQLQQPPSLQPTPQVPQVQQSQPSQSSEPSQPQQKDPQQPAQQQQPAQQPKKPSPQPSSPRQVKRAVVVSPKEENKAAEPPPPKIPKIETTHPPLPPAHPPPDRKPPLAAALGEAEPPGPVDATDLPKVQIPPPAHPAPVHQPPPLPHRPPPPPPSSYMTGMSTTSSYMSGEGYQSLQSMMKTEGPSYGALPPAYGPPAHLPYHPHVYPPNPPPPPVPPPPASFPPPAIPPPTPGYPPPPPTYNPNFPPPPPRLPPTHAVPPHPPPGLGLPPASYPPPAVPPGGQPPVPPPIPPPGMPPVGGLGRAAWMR
Method: as §1, with “detection. Compound Staurosporine having a structural formula of” for “detection.”
as §2

Sequence of CDK7/Cyclin H/MAT1 kinase (P50613 whole entry): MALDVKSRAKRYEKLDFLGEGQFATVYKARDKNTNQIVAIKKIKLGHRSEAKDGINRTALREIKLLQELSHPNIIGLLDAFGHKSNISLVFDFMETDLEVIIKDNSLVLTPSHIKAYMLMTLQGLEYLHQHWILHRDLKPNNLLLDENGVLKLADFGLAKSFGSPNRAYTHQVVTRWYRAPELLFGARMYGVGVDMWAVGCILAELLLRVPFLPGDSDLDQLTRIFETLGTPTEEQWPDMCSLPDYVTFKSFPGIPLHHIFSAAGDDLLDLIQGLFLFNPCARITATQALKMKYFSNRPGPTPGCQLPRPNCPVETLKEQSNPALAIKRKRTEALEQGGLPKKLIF
Sequence of CDK7/Cyclin H/MAT1 kinase (P51946 whole entry partner): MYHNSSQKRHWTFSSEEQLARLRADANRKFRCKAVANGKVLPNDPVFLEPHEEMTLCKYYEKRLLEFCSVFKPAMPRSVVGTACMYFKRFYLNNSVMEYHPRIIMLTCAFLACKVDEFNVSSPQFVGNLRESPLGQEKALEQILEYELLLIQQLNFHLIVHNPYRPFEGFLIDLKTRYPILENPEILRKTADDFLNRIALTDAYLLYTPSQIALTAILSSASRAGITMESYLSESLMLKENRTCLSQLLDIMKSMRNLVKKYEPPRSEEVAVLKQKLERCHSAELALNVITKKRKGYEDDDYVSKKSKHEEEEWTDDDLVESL
Sequence of CDK7/Cyclin H/MAT1 kinase (P51948 whole entry partner): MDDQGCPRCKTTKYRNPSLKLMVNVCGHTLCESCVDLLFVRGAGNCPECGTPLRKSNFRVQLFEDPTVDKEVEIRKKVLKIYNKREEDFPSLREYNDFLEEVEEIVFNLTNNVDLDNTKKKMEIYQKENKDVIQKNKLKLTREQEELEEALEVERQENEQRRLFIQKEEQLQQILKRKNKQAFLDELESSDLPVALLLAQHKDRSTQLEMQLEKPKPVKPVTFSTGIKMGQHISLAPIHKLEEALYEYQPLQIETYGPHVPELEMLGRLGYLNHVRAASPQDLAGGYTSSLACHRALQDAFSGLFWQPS

IC50 [1] [nM] | IC50 [2] [nM] | IC50 [3] [nM] | IC50 [4] [nM] | SMILES
> 500 | > 500 | > 500 | > 500 | COC(=O)Nc1ccc2c(-c3nc(N[C@H]4CCC[C@@H](O)C4)ncc3C(F)(F)F)c[nH]c2c1Br [Example T-29]
< 50 | > 500 | > 500 | > 500 | COC(=O)Nc1ccc2c(-c3nc(N[C@H]4CCCNC4)ncc3C(F)(F)F)c[nH]c2c1-c1ccccc1 [Example T-60]
50 to 500 | > 500 | > 500 | > 500 | COC(=O)Nc1ccc2c(-c3nc(N[C@H]4CC[C@@H](C)NC4)ncc3C(F)(F)F)c[nH]c2c1Br [Example T-143]
< 50 | > 500 | > 500 | > 500 | CCOC(=O)Nc1ccc2c(-c3nc(N[C@@H]4CNCC(C)(C)C4)ncc3C(F)(F)F)c[nH]c2c1Br [Example T-43]
< 50 | > 500 | > 500 | > 500 | COC(=O)N(C)c1ccc2c(-c3nc(N[C@H]4CCCNC4)ncc3C(F)(F)F)c[nH]c2c1C(F)F [Example T-163]
50 to 500 | > 500 | > 500 | > 500 | COC(=O)Nc1ccc2c(-c3nc(N[C@H]4CC[C@@H](C)NC4)ncc3C(F)(F)F)c[nH]c2c1OCC(F)(F)F [Example T-151]
50 to 500 | > 500 | > 500 | > 500 | COC(=O)Nc1ccc2c(-c3nc(N[C@H]4CC[C@@H](C)NC4)ncc3C(F)(F)F)c[nH]c2c1OC [Example T-140]
< 50 | > 500 | > 500 | > 500 | COC(=O)Nc1ccc2c(-c3nc(N[C@H]4CCCN(C)C4)ncc3C(F)(F)F)c[nH]c2c1C(F)F [Example T-169]
< 50 | > 500 | > 500 | > 500 | CN1CCC[C@H](Nc2ncc(C(F)(F)F)c(-c3c[nH]c4cc(N5CCCC5=O)ccc34)n2)C1 [Example T-05]
< 50 | > 500 | > 500 | > 500 | COC(=O)Nc1ccc2c(-c3nc(N[C@H]4CCC(C)(C)NC4)ncc3C(F)(F)F)c[nH]c2c1OC(F)(F)F [Example T-109]

The remaining lines, values behind:

SMILES | IC50 [1] [nM] | IC50 [2] [nM] | IC50 [3] [nM] | IC50 [4] [nM]
COC(=O)Nc1ccc2c(-c3nc(N[C@H]4[C@@H]5CNC[C@@H]54)ncc3C(F)(F)F)c[nH]c2c1Br [Example T-24] | < 50 | > 500 | > 500 | > 500
CCOC(=O)Nc1ccc2c(-c3nc(N[C@H]4CCC(C)(C)NC4)ncc3C(F)(F)F)c[nH]c2c1Cl [Example T-82] | < 50 | > 500 | > 500 | > 500
COC(=O)Nc1ccc2c(-c3nc(N[C@@H]4CCC[C@H](N)C4)ncc3C(F)(F)F)c[nH]c2c1Br [Example T-22] | 50 to 500 | > 500 | > 500 | > 500
COC(=O)Nc1ccc2c(-c3nc(N[C@H]4CCC5(CC5)NC4)ncc3C(F)(F)F)c[nH]c2c1C(C)(F)F [Example T-137] | < 50 | > 500 | > 500 | > 500
CC(C)OC(=O)Nc1ccc2c(-c3nc(N[C@H]4CCCNC4)ncc3C(F)(F)F)c[nH]c2c1Br [Example T-44] | < 50 | > 500 | > 500 | > 500
COC(=O)Nc1ccc2c(-c3nc(N[C@H]4CCC5(CC5)NC4)ncc3C(F)(F)F)c[nH]c2c1OC(F)F [Example T-154] | < 50 | > 500 | > 500 | > 500
CCOc1c(NC(=O)OC)ccc2c(-c3nc(N[C@H]4CCCNC4)ncc3C(F)(F)F)c[nH]c12 [Example T-138] | < 50 | > 500 | > 500 | > 500
COC(=O)Nc1ccc2c(-c3nc(NC4CC5(CC(N)C5)C4)ncc3C(F)(F)F)c[nH]c2c1Br (stereo not drawn) [Example T-31] | < 50 | > 500 | > 500 | > 500
